Reference: article PMC7395068, “The evolution of strategies to minimise the risk of human drug-induced liver injury (DILI) in drug discovery and development” (Archives of Toxicology, 2020)
Read-outs that look alike come from different tables or passages of the source. Blank lines part the entries; values can stand above or below the compound they belong to.

What was measured:
HepG2 cells [1] = details: cited from earlier work; for Structural based (HCI): In vitro Assay, ref O'Brien 2006
HepG2 cells [2] = details: cited from earlier work
human hepatocytes = details: cited from earlier work; for Structural based (HCI): In vitro Assay, ref Xu 2008
[3] = cited from earlier work
[4] = tested on: THLE-Null and THLE-3A4 cells; details: In vitro Assay; ref Gustafsson 2014; cited from earlier work
[5] = tested on: HepG2 cells, primary human hepatocytes; details: In vitro Assay; ref Garside 2014; cited from earlier work
Upcyte human hepatocytes = details: In vitro Assay; ref Tolosa 2019; cited from earlier work
rBsep = details: In vitro Assay; ref Dawson 2012; cited from earlier work
[6] = Plasma free fraction (fu) and unbound Cmax (Cmax,u); assay type: in vitro ADME, human; details: unbound plasma Cmax
[7] = cited from earlier work; remark: listed apart in the source
HepG2 cells [8] = details: cited from earlier work; remark: listed apart in the source
[9] = tested on: THLE or HepG2 cells, isolated mitochondria, BSEP; details: cited from earlier work
PHH = details: cited from earlier work
hLiMTs [10] = details: cited from earlier work
[11] = read-out: Human plasma Cmax; total plasma Cmax.tot, median of 9 literature references; cited from earlier work
[12] = plasma free fraction; cited from earlier work
[13] = tested on: isolated mouse liver mitochondria; details: In vitro Assay; ref Porceddu 2012; cited from earlier work
hLiMTs [14] = experiment: Combined HCI (HCS) and cellular ATP 3D assay in hLiMTs
HepaRG spheroids = experiment: Combined HCI (HCS) and cellular ATP 3D assay in HepaRG spheroids
[15] = In vitro Assay, ref Persson 2013
[16] = Modeled in vitro assays (cytotoxicity, mitochondrial dysfunction, BSEP), ref Aleo et al. 2019
[17] = In vitro Assay, ref Proctor 2017
[18] = Microtissue model structural based (HCI), combined HCS and ATP, MEC < 25 × Cmax.tot cut-off

Compound: CN1CCC(=C2c3ccccc3CC(=O)c3sccc32)CC1 [ketotifen, reference compound]
- Structural based (HCI) (HepG2 cells [1]): -VE
- Structural based (HCI) (HepG2 cells [2]; In vitro Assay, ref Tolosa 2012): +VE
- DILI in vitro assay prediction, Tolosa (2012) (HepG2 cells [2]; Structural based (HCI), HepG2, ref Tolosa et al. 2012): false-positive
- Structural based (HCI) (human hepatocytes): -VE
- In vivo DILI ([3]; ref Dawson 2012): -VE
- In vivo DILI ([3]; ref Garside 2014): +VE
- In vivo DILI ([3]; ref Gustafsson 2014): +VE
- In vivo DILI ([3]; ref O'Brien 2006): -VE
- In vivo DILI ([3]; ref Tolosa 2012): -VE
- In vivo DILI ([3]; ref Tolosa 2019): +VE
- In vivo DILI ([3]; ref Xu 2008): -VE
- THLE-Null [4]: -VE
- THLE-Null/3A4 [4]: -VE
- Cluster 1-6 +VE Assay [5]: +VE
- Upcytes multi donor assay 14day data (Upcyte human hepatocytes): +VE
- Inhibition of rBsep cutoff<1& cmax u>.2 (rBsep): -VE
- Inhibition of rBsep cutoff<3 (rBsep): -VE

- Human plasma Cmax,u [6]: 41.912 µM
- hLiMTs <25x Avg Cmax ATP (hLiMTs [14]; hLiMTs, ATP endpoint, cut-off <25x Avg Cmax): -ve
- hLiMTs <100x Avg Cmaxu ATP (hLiMTs [14]; hLiMTs, ATP endpoint, cut-off <100x Avg Cmaxu): +ve (<100x Avg Cmaxu)
- hLiMTs <25x Avg Cmax HCS (hLiMTs [14]; hLiMTs, HCS endpoints, cut-off <25x Avg Cmax): -ve
- hLiMTs <100x Avg Cmaxu HCS (hLiMTs [14]; hLiMTs, HCS endpoints, cut-off <100x Avg Cmaxu): -ve
- hLiMTs <25x Avg Cmax All (hLiMTs [14]; hLiMTs, all endpoints (ATP and HCS), cut-off <25x Avg Cmax): -ve
- hLiMTs Cmax max All (hLiMTs [14]; hLiMTs, all endpoints, Cmax max used): -ve
- hLiMTs Cmax min All (hLiMTs [14]; hLiMTs, all endpoints, Cmax min used): -ve
- hLiMTs <10 uM All (hLiMTs [14]; hLiMTs, all endpoints, cut-off <10 uM): -ve
- hLiMTs <100x Avg Cmaxu All (hLiMTs [14]; hLiMTs, all endpoints, cut-off <100x Avg Cmaxu): +ve (<100x Avg Cmaxu)
- HepaRG <25x Avg Cmax ATP (HepaRG spheroids; HepaRG, ATP endpoint, cut-off <25x Avg Cmax): -ve
- HepaRG <100x Avg Cmaxu ATP (HepaRG spheroids; HepaRG, ATP endpoint, cut-off <100x Avg Cmaxu): +ve (<100x Avg Cmaxu)
- HepaRG <25x Avg Cmax HCS (HepaRG spheroids; HepaRG, HCS endpoints, cut-off <25x Avg Cmax): -ve
- HepaRG <100x Avg Cmaxu HCS (HepaRG spheroids; HepaRG, HCS endpoints, cut-off <100x Avg Cmaxu): +ve (<100x Avg Cmaxu)
- HepaRG <25x Avg Cmax All (HepaRG spheroids; HepaRG, all endpoints (ATP and HCS), cut-off <25x Avg Cmax): -ve
- HepaRG Cmax max All (HepaRG spheroids; HepaRG, all endpoints, Cmax max used): -ve
- HepaRG Cmax min All (HepaRG spheroids; HepaRG, all endpoints, Cmax min used): -ve
- HepaRG <10 uM All (HepaRG spheroids; HepaRG, all endpoints, cut-off <10 uM): -ve
- HepaRG <100x Avg Cmaxu All (HepaRG spheroids; HepaRG, all endpoints, cut-off <100x Avg Cmaxu): +ve (<100x Avg Cmaxu)
Compound: [H]/N=C(/N)N[C@H]1[C@H](O)[C@@H](O)[C@H](O[C@@H]2O[C@@H](C)[C@](O)(C=O)[C@H]2O[C@@H]2O[C@@H](CO)[C@H](O)[C@@H](O)[C@@H]2NC)[C@@H](N/C(N)=N\[H])[C@@H]1O [streptomycin, reference compound]
- DILI severity category (Chen et al. [2016]) ([7]; LTKB DILIrank category, ref Chen et al. 2016): No
- DILI severity category (Chen 2016) ([7]; human DILI classification, LTKB DILIrank, ref Chen et al. 2016): No
- DILI severity category ([7]; human DILI severity, ref Chen et al.): No
- DILI +VE (5-8), DILI -VE (-4) ([7]; ref Chen 2016): -VE
- DILI severity category ([7]; ref Chen 2016): vNo-DILI-Concern
- Structural based (HCI) (HepG2 cells [1]): +VE
- DILI in vitro assay prediction, O'Brien (2006) (HepG2 cells [1]; Structural based (HCI), HepG2, ref O'Brien et al. 2006): +VE (lowest HCI endpoint IC50 (or in the absence of dose–response < 100 µM) < 30 × total human plasma exposure levels (Cmax.tot))
- Cluser analysis (HepG2 cells [8]; [15]): -VE
- Structural based (HCI) (HepG2 cells [8]; [15]): -VE
- DILI in vitro assay prediction, Persson (2013) (HepG2 cells [8]; Structural based (HCI), HepG2, ref Persson et al. 2013): -VE
- Structural based (HCI) (human hepatocytes): -VE
- DILI in vitro assay prediction, Xu (2008) (human hepatocytes; Structural based (HCI), human hepatocytes, ref Xu et al. 2008): -VE
- Partition Hybrid HRM Score ([9]; In vitro Assay, ref Aleo 2019): -VE
- Ro2 Hybrid HRM Score ([9]; In vitro Assay, ref Aleo 2019): -VE
- Partition Hybrid HRM Score ≥4, Aleo (2019) [9, 16]: -VE
- Partition Hybrid HRM Score ≥8, Aleo (2019) [9, 16]: -VE
- Rule of Two hybrid HRM Score ≥3, Aleo (2019) [9, 16]: -VE
- Rule of Two hybrid HRM Score ≥8, Aleo (2019) [9, 16]: -VE
- PHH/100xCmax, Proctor (2017) (PHH; 2D PHH, ATP, IC50 < 100 × Cmax.tot, ref Proctor et al. 2017): -VE
- PHH/100uM, Proctor (2017) (PHH; 2D PHH, ATP, IC50 threshold 100 µM, ref Proctor et al. 2017): -VE
- PHH ATP <100uM (PHH; [17]): -VE
- hLiMTs ATP <100uM (hLiMTs [10]; [17]): -VE
- hLiMTs/100xCmax, Proctor (2017) (hLiMTs [10]; hLiMTs, ATP, IC50 < 100 × Cmax.tot, ref Proctor et al. 2017): -VE
- hLiMTs/100uM, Proctor (2017) (hLiMTs [10]; hLiMTs, ATP, IC50 threshold 100 µM, ref Proctor et al. 2017): -VE
- Cmax [11]: 64.5 µM
- fu [12]: 0.650
- Assigned DILI category ([3]; Chen et al. 2016 or literature alignment, ref Chen et al. 2016): 1
- In vivo DILI ([3]; ref Aleo 2019): -VE
- In vivo DILI ([3]; ref Dawson 2012): -VE
- In vivo DILI ([3]; ref Garside 2014): -VE
- In vivo DILI ([3]; ref Gustafsson 2014): -VE
- In vivo DILI ([3]; ref O'Brien 2006): -VE
- In vivo DILI ([3]; ref Persson 2013): -VE
- In vivo DILI ([3]; ref Porceddu 2012): +VE
- In vivo DILI ([3]; ref Proctor 2017): -VE
- In vivo DILI ([3]; ref Tolosa 2019): -VE
- In vivo DILI ([3]; ref Xu 2008): -VE
- THLE-Null [4]: -VE
- THLE-Null/3A4 [4]: -VE
- Cluster 1-6 +VE Assay [5]: -VE
- in vitro data EC2<=1x Cmax [13]: +VE
- in vitro data EC20<=2uM [13]: -VE
- Upcytes multi donor assay 14day data (Upcyte human hepatocytes): -VE
- Inhibition of rBsep cutoff<1& cmax u>.2 (rBsep): -VE
- Inhibition of rBsep cutoff<3 (rBsep): -VE
- AC50 (hLiMTs [14]; Homo sapiens, read-out: ATP endpoint AC50): 1.96 mM
- minimal effective concentration (hLiMTs [14]; Homo sapiens, read-out: ATP endpoint MEC): 1700 µM
- DILI prediction hLiMTs (HCS-MEC) (hLiMTs [14]; [18]): -VE
- AC50 (HepaRG spheroids; Homo sapiens, HepaRG, read-out: ATP endpoint AC50): 3.65 mM
- minimal effective concentration (HepaRG spheroids; Homo sapiens, HepaRG, read-out: ATP endpoint MEC): 2830 µM
- minimal effective concentration (HepaRG spheroids; Homo sapiens, HepaRG, read-out: HCS endpoint MEC): 3140 µM
- DILI prediction HepaRG spheroids (HCS-MEC) (HepaRG spheroids; [18]): -VE
